Here are results for eight molecules from patent publication US20100069504A1, “AMINOBENZOCYCLOHEPTENE DERIVATIVES, METHODS FOR PREPARING THE SAME AND USES THEREOF IN THERAPY” (UNIVERSITE DE HAUTE ALSACE, priority 2006, published 2010).

Where a name gives a salt, the structure may show the parent alone. A value given as a limit tells only on which side of the number the result lay.

One data set has as its target T1, human recombinant leukotriene A4 hydrolase (LTA4H) (EC3.3.2.6) (Homo sapiens, UniProt P09960).
T1 sequence (P09960 1-611): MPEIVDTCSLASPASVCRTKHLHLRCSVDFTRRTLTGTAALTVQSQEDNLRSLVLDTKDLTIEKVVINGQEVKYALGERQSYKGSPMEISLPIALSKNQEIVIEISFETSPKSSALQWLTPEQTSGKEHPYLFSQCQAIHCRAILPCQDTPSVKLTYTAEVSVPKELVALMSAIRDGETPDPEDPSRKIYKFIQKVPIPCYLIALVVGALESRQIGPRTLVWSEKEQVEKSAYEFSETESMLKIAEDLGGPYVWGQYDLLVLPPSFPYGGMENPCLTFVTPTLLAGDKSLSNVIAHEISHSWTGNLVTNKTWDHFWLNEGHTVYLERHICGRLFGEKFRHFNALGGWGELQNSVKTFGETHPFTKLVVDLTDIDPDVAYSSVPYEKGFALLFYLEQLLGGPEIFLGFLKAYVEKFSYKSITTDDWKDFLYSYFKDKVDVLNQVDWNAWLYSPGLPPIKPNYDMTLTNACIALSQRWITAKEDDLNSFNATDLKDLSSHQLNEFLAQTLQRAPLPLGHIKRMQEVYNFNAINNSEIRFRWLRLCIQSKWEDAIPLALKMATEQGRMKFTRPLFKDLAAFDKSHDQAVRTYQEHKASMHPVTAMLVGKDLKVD
As to the kind of experiment: LTA4H aminopeptidase inhibition, Ki by spectrophotometry (Dixon method). Type of data set: biochemical. The following applies: alanine para-nitroanilide substrate, 30° C., pH=7.5; hydrochloride, racemic mixture. As for the experimental part:
(§1) LTA4H has an aminopeptidase type activity similar to AP-N and a very close substrate specificity. It is important for the AP-N inhibitory molecules neither to inhibit LTA4H nor aminopeptidases that contain a co-catalytic unit like LAPc.
(§2) The kinetic studies are carried out at 30° C. and the reactions are started up by adding the enzymes in 1 mL of test medium: LAPc, 5 units in 10 mM Tris-HCl, 0.1 mM ZnCl2, 5 mM MnCl2, 1 M KCl, pH=8.0; AP-N, 25 mUnits in 10 mM Tris-HCl, pH=7.5 and LTA4H, 5 μg in 10 mM Tris-HCl, 0.1 mM KCl, pH=7.5.
(§3) All the inhibitory molecules are assessed as an hydrochloride and in racemic mixture.
For the molecule `NC1CCc2ccccc2C(SCc2ccccc2)C1=O` (racemic) [EX 8, 5-benzylsulphanyl-7-amino-5,7,8,9-tetrahydro-benzocyclohepten-6-one hydrochloride], the Ki (as a rule, a dissociation constant, usually derived from enzyme kinetics or from competition with a known ligand) is over 1000 µM.
Take `Cl.NC1CCc2ccccc2C(CCCc2ccccc2)C1=O` (racemic) [EX 6, 5-phenylpropyl-7-amino-5,7,8,9-tetrahydro-benzocyclohepten-6-one hydrochloride]: the Ki was over 1000 µM.
Same read-out and setting: the result for `NC1CCc2c(Br)cccc2CC1=O` (racemic) [EX 9, 7-amino-1-bromo-5,7,8,9-tetrahydro-benzocyclohepten-6-one hydrochloride] reads over 1000 µM; that for `NC1CCc2cccc(-c3ccccc3)c2CC1=O` (racemic) [EX 7, 7-amino-4-phenyl-5,7,8,9-tetrahydro-benzocyclohepten-6-one hydrochloride], over 1000 µM; that for `Cl.NC1CCc2ccccc2CC1=O` (racemic) [EX 2, 7-amino-5,7,8,9-tetrahydro-benzocyclohepten-6-one hydrochloride], over 1000 µM.
In the case of `NC1CCc2ccccc2C(F)C1=O` (racemic) [EX 3, 7-amino-5-fluoro-5,7,8,9-tetrahydro-benzocyclohepten-6-one hydrochloride], the Ki is over 1000 µM.
Same read-out and setting: for `NC1Cc2ccccc2CC1=O` (racemic) [EX 10, 2-amino-3-tetralone, reference compound] the value was over 1000 µM.

Tested on in a further data set: not given
Assay: not given
Details: not given
With `Cl.NC1CCc2ccccc2CC1=NO` (stereo not drawn), the melting point (usually the temperature, or range, at which the solid turns liquid) lay in the range of 270 to 280 °C.
In turn, `Cl.NC1CCc2ccccc2C(CCCc2ccccc2)C1=O` (racemic) [EX 6, 5-phenylpropyl-7-amino-5,7,8,9-tetrahydro-benzocyclohepten-6-one hydrochloride] had a melting point of 156 to 158 °C.

In a further data set the target is T2, AP-N from porcine livers (Sus scrofa, UniProt P15145).
T2 construct: The AP-N is purified in a soluble form according to the method described by Wacker; purchased Sigma Chemical Corporation; host or cells: porcine livers (tissue)
T2 sequence (P15145 33-963 limits assumed): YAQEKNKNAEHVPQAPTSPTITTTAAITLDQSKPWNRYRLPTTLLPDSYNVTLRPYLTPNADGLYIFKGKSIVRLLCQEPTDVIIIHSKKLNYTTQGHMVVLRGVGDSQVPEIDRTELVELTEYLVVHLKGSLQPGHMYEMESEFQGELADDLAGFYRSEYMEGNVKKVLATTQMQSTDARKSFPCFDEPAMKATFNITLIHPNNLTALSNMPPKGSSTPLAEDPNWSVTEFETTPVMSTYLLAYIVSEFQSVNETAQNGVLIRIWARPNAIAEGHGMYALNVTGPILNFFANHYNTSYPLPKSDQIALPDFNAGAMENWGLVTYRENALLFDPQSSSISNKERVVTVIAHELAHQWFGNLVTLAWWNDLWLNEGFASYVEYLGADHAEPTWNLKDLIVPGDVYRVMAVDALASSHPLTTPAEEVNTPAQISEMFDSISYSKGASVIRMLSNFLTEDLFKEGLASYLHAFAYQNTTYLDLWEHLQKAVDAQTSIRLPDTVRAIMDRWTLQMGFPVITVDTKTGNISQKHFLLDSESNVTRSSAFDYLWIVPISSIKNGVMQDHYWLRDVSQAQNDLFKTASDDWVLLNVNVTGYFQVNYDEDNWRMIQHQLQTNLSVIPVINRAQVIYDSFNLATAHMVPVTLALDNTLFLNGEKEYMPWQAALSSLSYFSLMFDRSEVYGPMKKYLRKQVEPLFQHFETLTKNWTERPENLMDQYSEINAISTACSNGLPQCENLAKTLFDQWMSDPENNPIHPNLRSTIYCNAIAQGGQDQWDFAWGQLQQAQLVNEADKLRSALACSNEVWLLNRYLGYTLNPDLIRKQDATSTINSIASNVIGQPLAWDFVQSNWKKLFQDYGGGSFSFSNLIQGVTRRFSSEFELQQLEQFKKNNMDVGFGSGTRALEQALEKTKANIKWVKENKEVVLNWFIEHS
The experiment in a line: Stability in aqueous solution, followed by AP-N inhibition over at least 10 hours. The following applies: read-out: inhibition of AP-N throughout the test. The data set is classed as biochemical. As for the experimental part: The enzymatic tests are carried out at 25° C. in 20 mM Tris-HCl, pH=7.5 with 0.2 mM L-leucine para-nitroanilide as a substrate, in a total reaction volume of 1 mL. […] The reaction is started up by adding 3 milliunits of AP-N from porcine livers.
Under these experimental conditions, the linear kinetics is monitored for at least 10 hours.
`Cl.NC1CCc2ccccc2CC1=O` (racemic) [EX 2, 7-amino-5,7,8,9-tetrahydro-benzocyclohepten-6-one hydrochloride]: the inhibition (as a rule, the relative decrease from the control value, in per cent) at 200 µM is 50%.

Another data set has as its target T3, AP-N (EC3.4.11.2) (Sus scrofa, UniProt P15145).
T3 construct: The AP-N is purified in a soluble form according to the method described by Wacker; purchased Sigma Chemical Corporation; host or cells: porcine livers (tissue)
T3 sequence (P15145 33-963 limits assumed): T2 sequence (P15145 33-963 limits assumed)
As to the kind of experiment: AP-N inhibitory activity, inhibition constant Ki by spectrophotometry (Dixon method). Type of data set: biochemical, porcine. The following applies: L-leucine para-nitroanilide substrate, 30° C., pH=7.5; hydrochloride, racemic mixture.
Text: as §1
(§4) The LAPc enzymes from bovine livers and AP-N from porcine livers are marketed by Sigma Chemical Corporation. The AP-N is purified in a soluble form according to the method described by Wacker, H., Lecky, P., Fischer E. H., Stein, E. A. Hely. Chim.
as §2, §3
For `NC1CCc2ccccc2C(SCc2ccccc2)C1=O` (racemic) [EX 8, 5-benzylsulphanyl-7-amino-5,7,8,9-tetrahydro-benzocyclohepten-6-one hydrochloride], the Ki came to 0.08 µM.
Same read-out and setting: the result for `Cl.NC1CCc2ccccc2C(CCCc2ccccc2)C1=O` (racemic) [EX 6, 5-phenylpropyl-7-amino-5,7,8,9-tetrahydro-benzocyclohepten-6-one hydrochloride] reads 12 µM.
Consider `Cl.NC1CCc2ccccc2CC1=O` (racemic) [EX 2, 7-amino-5,7,8,9-tetrahydro-benzocyclohepten-6-one hydrochloride], for which the inhibitory constant (Ki) worked out at 1 µM.
`NC1CCc2ccccc2C(F)C1=O` (racemic) [EX 3, 7-amino-5-fluoro-5,7,8,9-tetrahydro-benzocyclohepten-6-one hydrochloride]: the Ki stood at 0.3 µM.

In a further data set the target is T4, cytosolic leucine aminopeptidase (LAPc) (EC3.4.11.1) (Bos taurus, UniProt P00727).
T4 construct: The LAPc enzymes from bovine livers; purchased Sigma Chemical Corporation; host or cells: bovine livers (tissue)
T4 sequence (P00727 1-519): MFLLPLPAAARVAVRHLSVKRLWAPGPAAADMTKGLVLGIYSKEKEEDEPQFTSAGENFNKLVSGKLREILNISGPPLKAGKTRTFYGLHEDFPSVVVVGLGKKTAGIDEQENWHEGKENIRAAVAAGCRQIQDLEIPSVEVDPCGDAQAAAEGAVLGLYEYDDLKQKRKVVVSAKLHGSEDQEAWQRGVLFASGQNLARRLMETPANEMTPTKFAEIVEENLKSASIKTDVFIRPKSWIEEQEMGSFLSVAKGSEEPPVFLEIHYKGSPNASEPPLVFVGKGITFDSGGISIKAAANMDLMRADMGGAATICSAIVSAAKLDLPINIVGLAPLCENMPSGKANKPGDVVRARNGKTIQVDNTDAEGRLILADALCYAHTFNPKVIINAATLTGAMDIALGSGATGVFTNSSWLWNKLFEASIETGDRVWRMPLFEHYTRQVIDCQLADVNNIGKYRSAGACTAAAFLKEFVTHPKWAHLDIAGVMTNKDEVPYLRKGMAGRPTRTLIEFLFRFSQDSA
As to the kind of experiment: LAPc inhibition, Ki by spectrophotometry (Dixon method). Type of data set: biochemical, bovine.
Details: not given
Text: as §1, §4, §2, §3
Regarding `NC1Cc2ccccc2CC1=O` (racemic) [EX 10, 2-amino-3-tetralone, reference compound], the Ki is 0.00012 M.

Still in this data set, the particulars now being: L-leucine para-nitroanilide substrate, 30° C., pH=8.0; hydrochloride, racemic mixture; read-out: Ki (M) LAPc (EC3.4.11.1).
Turning to `NC1CCc2ccccc2C(SCc2ccccc2)C1=O` (racemic) [EX 8, 5-benzylsulphanyl-7-amino-5,7,8,9-tetrahydro-benzocyclohepten-6-one hydrochloride], the Ki was over 0.001 M.
Take `Cl.NC1CCc2ccccc2C(CCCc2ccccc2)C1=O` (racemic) [EX 6, 5-phenylpropyl-7-amino-5,7,8,9-tetrahydro-benzocyclohepten-6-one hydrochloride]: the Ki is over 0.001 M.
Same read-out and setting: for `NC1CCc2c(Br)cccc2CC1=O` (racemic) [EX 9, 7-amino-1-bromo-5,7,8,9-tetrahydro-benzocyclohepten-6-one hydrochloride] the value was over 0.001 M; for `NC1CCc2cccc(-c3ccccc3)c2CC1=O` (racemic) [EX 7, 7-amino-4-phenyl-5,7,8,9-tetrahydro-benzocyclohepten-6-one hydrochloride], 2e-05 M; for `Cl.NC1CCc2ccccc2CC1=O` (racemic) [EX 2, 7-amino-5,7,8,9-tetrahydro-benzocyclohepten-6-one hydrochloride], over 0.001 M.
On to `NC1CCc2ccccc2C(F)C1=O` (racemic) [EX 3, 7-amino-5-fluoro-5,7,8,9-tetrahydro-benzocyclohepten-6-one hydrochloride], for which the inhibition constant (Ki) was over 0.001 M.
